Measurements as given in US7972870B2, “Methods and compositions relating to the regulation of MUC1 by HSF1 and STAT3” (Dana-Farber Cancer Institute, Inc., priority 2007, dated 2011).

Columns and labels:
[1] = test system: MUC1 expression in MCF10A cells; test: MUC1 expression by immunoblot of whole-cell lysates after stimulation; assay type: cell-based
Procedure: FIG. 2A is a pair of photographs of immunoblots depicting the induction of MUC1 expression following heregulin (HRG) treatment. MCF10A cells were cultured without (“0”) and with HRG (20 ng/mL) for 24 (“24”) and 48 (“48”) hours. Cells were harvested at the indicated time points and lysed for western blot analysis. Whole-cell lysates were subjected to sodium dodecyl sulfate polyacrylamide gel electrophoresis (SDS-PAGE) under reducing conditions and proteins were detected (immunoblotted, “IB”) using antibodies specific for MUC1-C and β-actin (top and bottom photographs, respectively). The relative positions (e.g., the molecular weights) of the proteins are reported in kilodaltons (kDa) and indicated to the left of each of the immunoblots (e.g., 25 kDa or 45 kDa). “HRG” indicates treatment with heregulin.
FIG. 2C is a photograph of an immunoblot depicting the induction of MUC1 expression following IL-6 treatment. MCF10A cells were treated without (“0”) and with IL-6 (20 ng/mL) and then cultured at 37° C. for 24 (“24”) and 48 (“48”) hours. Cells were harvested at the indicated time points and lysed for western blot analysis. Whole-cell lysates were subjected to SDS-PAGE under reducing conditions and proteins were detected (immunoblotted, “IB”) using antibodies specific for MUC1-C. The relative positions (e.g., the molecular weights) of the proteins are reported in kilodaltons (kDa) and indicated to the left of the immunoblot. “IL-6” indicates IL-6 treatment.
Heregulin treatment of cells results in (i) activation of ErbB2, ErbB3, and ErbB4 and (ii) induction of the formation of complexes between these receptors and MUC1. To assess if MUC1 is regulated by heregulin in normal cells, the induction of MUC1 expression by heregulin treatment was assessed in the immortalized, but non-cancer breast cell line MCF10A. […] As a control for loading, β-actin was detected using anti-β-actin (Sigma, St. Louis, Mo.). […]

GST-STAT3 = GST-STAT3 (Homo sapiens, UniProt P40763); test: In vitro GST pull-down binding assay; conditions: purified His-tagged MUC1-CD, GST as control, immunoblot
Chain of GST-STAT3 (P40763 whole entry): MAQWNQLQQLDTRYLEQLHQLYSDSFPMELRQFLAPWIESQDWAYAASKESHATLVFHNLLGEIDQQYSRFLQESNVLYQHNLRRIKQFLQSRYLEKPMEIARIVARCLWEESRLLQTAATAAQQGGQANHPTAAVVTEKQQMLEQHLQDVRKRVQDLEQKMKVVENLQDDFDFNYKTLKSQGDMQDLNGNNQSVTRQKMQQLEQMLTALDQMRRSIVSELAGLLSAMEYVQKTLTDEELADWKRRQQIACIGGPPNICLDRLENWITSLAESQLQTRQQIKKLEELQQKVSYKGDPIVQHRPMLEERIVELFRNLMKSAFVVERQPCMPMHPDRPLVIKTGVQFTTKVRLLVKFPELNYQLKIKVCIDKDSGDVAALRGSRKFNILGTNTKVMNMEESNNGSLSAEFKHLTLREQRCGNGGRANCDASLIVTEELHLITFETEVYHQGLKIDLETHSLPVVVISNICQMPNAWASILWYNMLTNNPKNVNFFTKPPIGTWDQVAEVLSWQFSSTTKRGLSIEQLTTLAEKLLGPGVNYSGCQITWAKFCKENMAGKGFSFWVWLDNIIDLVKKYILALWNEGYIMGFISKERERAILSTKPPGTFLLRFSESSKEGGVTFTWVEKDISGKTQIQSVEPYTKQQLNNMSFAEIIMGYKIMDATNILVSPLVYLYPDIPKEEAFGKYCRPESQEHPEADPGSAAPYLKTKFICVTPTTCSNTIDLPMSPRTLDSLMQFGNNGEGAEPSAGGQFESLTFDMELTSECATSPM
Procedure: The binding of MUC1 to HSF1 could be direct or indirect, for example, through a third protein. To determine if the interaction between MUC1 and HSF1 is a direct, physical interaction, in vitro binding assays was performed. GST- and GST-STAT3 polypeptides were incubated with purified His-tagged MUC1-CD (similar to GST-HSF1-His-MUC1 experiments described above). The protein mixtures were then incubated with glutathione beads, which bind to the GST proteins and associated binding partners if present. The glutathione bead adsorbates were washed and immunoblotted with antibodies specific for His tags or to MUC1-C (as described above).

IL-6: inflammatory cytokine IL-6 (R&D Systems) that activates STAT3 through the Janus kinases
MUC1 expression ([1]; 0.1% serum overnight, 20 ng/mL IL-6, expected result): induce both STAT3 phosphorylation (activation) and MUC1 expression | MUC1 expression ([1]; IL-6 20 ng/mL, 24 and 48 hours (FIG. 2C)): induces MUC1 expression

B1: HRG: heregulin (HRG) (Calbiochem-Novabiochem), ligand activating ErbB2, ErbB3 and ErbB4 (protein, listed as Homo sapiens)
chain: MEIYSPDMSEVAAERSSSPSTQLSADPSLDGLPAAEDMPEPQTEDGRTPGLVGLAVPCCACLEAERLRGCLNSEKICIVPILACLVSLCLCIAGLKWVFVDKIFEYDSPTHLDPGGLGQDPIISLDATAASAVWVSSEAYTSPVSRAQSESEVQVTVQGDKAVVSFEPSAAPTPKNRIFAFSFLPSTAPSFPSPTRNPEVRTPKSATQPQTTETNLQTAPKLSTSTSTTGTSHLVKCAEKEKTFCVNGGECFMVKDLSNPSRYLCKCPNEFTGDRCQNYVMASFYSTSTPFLSLPE
MUC1 protein expression ([1]; 20 ng/mL HRG, anti-MUC1-C immunoblot (FIG. 2A)): increase in MUC1 protein expression

B2: His-tagged MUC1: purified His-tagged MUC1 cytoplasmic domain (MUC1-CD, SEQ ID NO:2) (protein, listed as Homo sapiens)
chain: CQCRRKNYGQLDIFPARDTYHPMSEYPTYHTHGRYVPPSSTDRSPYEKVSAGNGGSSLSYTNPAVAAASANL
modifications: His tag
binding to GST-STAT3 (glutathione bead adsorbates) (GST-STAT3): present in GST-STAT3 adsorbates but not GST-adsorbates
